Reference: patent US20260191817A1, “FIBROBLAST MODULATORS IN STROMA-RICH TUMORS” (UNIVERSITEIT GENT, priority 2022, published 2026)

Assays:
[1] = test system: CT5.3 hTERT colon CAFs; assay: AFM spheroid stiffness, CT5.3 hTERT colon CAFs; type: cell-based, human; details: 1 μM, 48 h
Text: It is well established that an increased tumor and ECM stiffness is associated with a negative prognosis as it promotes tumor growth, progression, therapy resistance, immunosuppression and metastasis. Stiffness is chiefly regulated by the action of the CAFs in the TME. Stiffness modulation is, therefore, a fitting read-out of activity in a screen for CAF modulators. To assess stiffness modulation, the stiffness of spheroids of CAF cells treated with test compounds was interrogated using atomic force microscopy (AFM) indentation and compared with untreated cells. AFM measurement of the stiffness (elasticity) of cells and spheroids is a technique well-known to those skilled in the art. AFM measures the force required to create a given deflection, this read-out is also known as the Young's modulus. AFM is widely used in biology and cancer research: altered physicochemical properties of live cells serve as a read-out of altered complex physiological processes.
U-shaped, 384-well ULA plates (cat. no. MS-9384UZ, S-bio) were seeded with a suspension of cell-specific culture media with cells. Cells were allowed to form spheroids for an appropriate time under treatment conditions before use in experiments. Cell culture dishes (cat. no. 734-2814, VWR) were filled with collagen gel and placed at 37° C. for an appropriate time to allow solidification. […]

[2] = test system: 4T1-luc cells; assay: 4T1-based intraductal model for triple-negative breast cancer: metastases; type: in vivo, BALB/c mice; details: oral in Medigel, 100 mg/kg three times per day; 6 w p.i.; compared to DMSO
Description: Intraductal inoculations were performed in the third mammary gland pair of lactating female mice. In order to become lactating, 8-w-old female BALB/c mice were mated with male BALB/c mice of the same age and pups were weaned 12-14 d after delivery. One hour after weaning, lactating females received inhalation anesthesia using a mixture of oxygen and isoflurane (2-3%) and were subsequently inoculated through the mammary teat canal using a 32-gauge blunt needle with 5×10^4 4T1-luc cells suspended in a 100 μl mixture of PBS and Matrigel® (1:10; Corning, Bedford, MA, USA). All necessary materials for inoculation were pre-cooled to avoid Matrigel® coagulation. […]
Compounds were dissolved in DMSO. […] The amount of Medigel given to the mice was weekly determined and depended on the mean mouse body weight and consumption. […]
Body weight and body temperature were measured every day during the first week p.i., and once a week during the following 5 weeks (i.e. up to 6 w p.i.) using a digital weighing scale and a rectal temperature probe, respectively. As a measurement of primary tumor growth, primary tumor volumes were weekly monitored using a digital caliper and 4T1-luc-derived bioluminescence in primary tumors was monitored at 1, 3 and 6 w p.i. using the IVIS lumina III system (PerkinElmer, Zaventem, Belgium). […]

[3] = test system: primary glioblastoma (GBM) cells; assay: AFM spheroid stiffness, primary glioblastoma cells; type: cell-based, human; details: 48 h
Description: Selectivity for CAFs with respect to normal fibroblasts and other cell types was assessed by performing an identical experiment with normal fibroblasts and other cell types, where compounds were considered selective for CAFs if they only modulate CAF stiffness.
U-shaped, 384-well ULA plates (cat. no. MS-9384UZ, S-bio) were seeded with a suspension of cell-specific culture media with cells. Cells were allowed to form spheroids for an appropriate time under treatment conditions before use in experiments. Cell culture dishes (cat. no. 734-2814, VWR) were filled with collagen gel and placed at 37° C. for an appropriate time to allow solidification. For each condition, spheroids were pooled in one cell culture dish. The medium was removed (stored at 37° C.) to promote attachment of the bottom of each spheroid to the collagen gel. The cell culture dishes were incubated at 37° C. After the incubation period, the stored medium was carefully (prevent detachment of spheroids) added to the dishes.
Mechanical measurements were performed using an atomic force microscope. To indent the spheroids an in-house made colloidal probe was used. Force curves were collected using an appropriate setpoint and probe speed (depending on the stiffness of the spheroids). On each spheroid multiple force curves were collected. Collected curves were then processed using the JPK DP software. Young's modulus was extracted from the force curves. All experiments were performed in biological triplicate.
To generate 3D cultures mimicking the complexity and pathophysiology of in vivo tumors, spheroids were used (cfr. point 4). Spheroids are considered to better simulate cellular heterogeneity, nutrient and oxygen gradients, cell-cell interactions, cell-matrix interactions, gene expression profiles, stromal interactions, therapeutic responses, multicellular resistance, drug penetration and anti-apoptotic signaling.

| Structure (SMILES) | spheroid stiffness [1] | metastatic burden in lung, liver and axillary lymph node metastases (ex-vivo bioluminescence) [2] | spheroid stiffness ([3]; 1 μM) | spheroid stiffness ([3]; 0.03-3 μM) |
| --- | --- | --- | --- | --- |
| COc1cc(C(=O)/C=C/c2ccc(F)cc2)cc(OC)c1OC [Compound A1, 3-(4-Fluorophenyl)-1-(3,4,5-trimethoxyphenyl)prop2-en-1-one] | decreased | overall reduction | no effect | nor did it change |
| COc1cc2oc(-c3ccc(F)cc3)cc(=O)c2c(OC)c1OC [Compound B1, 2-(4-Fluorophenyl)-5,6,7-trimethoxy-4H-chromen-4-one] | decreased | overall reduction | no effect |  |
